Assay results as given in ChEMBL document CHEMBL5154709, “Tetrazole derivatives bearing benzodiazepine moiety-synthesis and action mode against virulence of Candida albicans” (Eur J Med Chem, 2022).
Activity calls are given as the source filed them. No cut-off for these calls is given here.

What was measured:
[1] = Cytotoxicity against human TR146 cells at more than 64 ug/ml measured after 24 hrs by XTT assay; assay type: toxicity, cell-based; conditions: tr146, 24 h, dose 64 µg/ml
Candida albicans [2] = assay: Effect on HSP90 expression in Candida albicans cnb1delta/cnb1delta mutant assessed as decrease in relative expression of HSP90 gene level at 2 ug/ml incubated for 18 hrs by RT-PCR analysis; assay type: functional; conditions: dose 2.0 µg/ml
Candida albicans [3] = assay: Antifungal activity against Candida albicans SC5314 assessed as inhibition of fungal growth at 2 ug/ml incubated for 18 hrs by M27-A3 based microdilution method relative to control; assay type: functional
Candida albicans [4] = assay: Antifungal activity against Candida albicans SC5314 assessed as inhibition of fungal growth at 4 ug/ml incubated for 18 hrs by M27-A3 based microdilution method relative to control; assay type: functional
Candida albicans [5] = assay: Antifungal activity against Candida albicans SC5314 assessed as inhibition of fungal growth at 0.03125 ug/ml incubated for 48 hrs by M27-A3 based microdilution method relative to control; assay type: functional
Candida albicans [6] = assay: Induction of cell cycle arrest in Candida albicans SC5314 assessed as accumulation of cells in G0/G1 phase at 16 ug/ml incubated fro 18 hrs by PI staining based flow cytometry method; assay type: functional, organism-based; conditions: dose 16.0 µg/ml
Candida albicans [7] = assay: Downregulation of HSP90 gene expression in Candida albicans cnb1delta/cnb1delta mutant at 2 ug/ml incubated for 6 hrs in presence of calcium chloride by RT-PCR analysis; assay type: functional; conditions: dose 2.0 µg/ml
Candida albicans [8] = assay: Antifungal activity against Candida albicans SC5314 assessed as inhibition of fungal growth at 0.03125 ug/ml incubated for 18 hrs by M27-A3 based microdilution method relative to control; assay type: functional
Candida albicans [9] = assay: Antifungal activity against Candida albicans SC5314 assessed as inhibition of fungal growth at 4 ug/ml incubated for 48 hrs by M27-A3 based microdilution method relative to control; assay type: functional
Candida albicans [10] = assay: Induction of reactive oxygen species generation in Candida albicans cnb1delta/cnb1delta mutant assessed as increase in ROS level at 16 ug/ml incubated for 18 hrs by DCFH-DA staining based flow cytometric analysis (reference value: 4.7+/- 5.9%); assay type: functional; conditions: dose 16 µg/ml
Candida albicans [11] = assay: Effect on HSP90 expression in Candida albicans cnb1delta/CNB1 mutant assessed as decrease in relative expression of HSP90 gene level at 2 ug/ml incubated for 18 hrs by RT-PCR analysis; assay type: functional; conditions: dose 2.0 µg/ml
Candida albicans [12] = assay: Antifungal against Candida albicans cnb1delta/cnb1delta mutant biofilm assessed as apoptotic cells by measuring lysosomal membrane permeabilization at 16 ug/ml incubated for 18 hrs by PI/acridine orange double staining based confocal laser scanning microscopic analysis; assay type: functional, organism-based; conditions: dose 16.0 µg/ml
Candida albicans [13] = assay: Antifungal activity against Candida albicans SC5314 assessed as inhibition of fungal growth at 1 ug/ml incubated for 48 hrs by M27-A3 based microdilution method relative to control; assay type: functional
Candida albicans [14] = assay: Downregulation of HSP90 gene expression in Candida albicans cnb1delta/CNB1 mutant at 2 ug/ml incubated for 6 hrs in presence of calcium chloride by RT-PCR analysis; assay type: functional; conditions: dose 2.0 µg/ml
Candida albicans [15] = assay: Antifungal activity against Candida albicans SC5314 assessed as inhibition of fungal growth at 8 ug/ml incubated for 18 hrs by M27-A3 based microdilution method relative to control; assay type: functional
Candida albicans [16] = assay: Effect on HSP90 expression in Candida albicans BWP17 assessed as decrease in relative expression of HSP90 gene level at 2 ug/ml incubated for 18 hrs by RT-PCR analysis; assay type: functional; conditions: dose 2.0 µg/ml
Candida albicans [17] = assay: Induction of reactive oxygen species generation in Candida albicans SC5314 assessed as increase in ROS level at 16 ug/ml incubated for 18 hrs by DCFH-DA staining based flow cytometric analysis (reference value: 0.77+/- 0.4%); assay type: functional; conditions: dose 16 µg/ml
Candida tropicalis = assay: Inhibition of ergosterol biosynthesis in Candida tropicalis C129 assessed as reduction in ergosterol level incubated for 18 hrs by spectrophotometric analysis; assay type: functional; conditions: dose 0.06-32 µg/ml, DDE = dose-dependent effect
Candida albicans [18] = assay: Antifungal activity against Candida albicans SC5314 assessed as inhibition of fungal growth at 0.5 ug/ml incubated for 48 hrs by M27-A3 based microdilution method relative to control; assay type: functional
Candida albicans [19] = assay: Induction of reactive oxygen species generation in Candida albicans BWP17 assessed as increase in ROS level at 16 ug/ml incubated for 18 hrs by DCFH-DA staining based flow cytometric analysis (reference value: 7.2+/- 0.2%); assay type: functional; conditions: dose 16 µg/ml
Candida albicans [20] = assay: Antifungal activity against Candida albicans SC5314 assessed as inhibition of fungal growth at 1 ug/ml incubated for 18 hrs by M27-A3 based microdilution method relative to control; assay type: functional
Candida albicans [21] = assay: Antifungal activity against Candida albicans SC5314 assessed as inhibition of fungal growth at 8 ug/ml incubated for 48 hrs by M27-A3 based microdilution method relative to control; assay type: functional
Candida albicans [22] = assay: Antifungal activity against Candida albicans SC5314 assessed as inhibition of fungal growth at 0.0625 ug/ml incubated for 18 hrs by M27-A3 based microdilution method relative to control; assay type: functional
Candida albicans [23] = assay: Antifungal activity against Candida albicans SC5314 assessed as inhibition of fungal growth at 16 ug/ml incubated for 18 hrs by M27-A3 based microdilution method relative to control; assay type: functional
Candida albicans [24] = assay: Antifungal against Candida albicans SC5314 biofilm co-cultured with African green monkey Vero cells assessed as lysosomal membrane permeabilization at 16 ug/ml incubated for 18 hrs by PI/acridine orange double staining based confocal laser scanning microscopic analysis; assay type: functional, organism-based; conditions: dose 16.0 µg/ml
Candida albicans [25] = assay: Antifungal activity against Candida albicans SC5314 assessed as inhibition of fungal growth at 0.25 ug/ml incubated for 18 hrs by M27-A3 based microdilution method relative to control; assay type: functional
Candida albicans [26] = assay: In vivo antifungal activity against Candida albicans SC5314 infected in Galleria mellonella larvae assessed as prevention of candidiasis at 16 ug/ml administered 1 hr post infection measured after 5 days by Hematoxylin and eosin staining; assay type: functional, organism-based; conditions: dose 16.0 µg/ml, time 5.0 day
Candida albicans [27] = assay: Antifungal against Candida albicans SC5314 biofilm co-cultured with African green monkey Vero cells assessed as accidental cell death in pseudohyphal cells by measuring orange fluorescence emission at 16 ug/ml incubated for 18 hrs by PI/acridine orange double staining based confocal laser scanning microscopic analysis; assay type: functional, organism-based; conditions: dose 16.0 µg/ml
Candida albicans [28] = assay: Antifungal activity against Candida albicans SC5314 assessed as inhibition of fungal growth at 0.125 ug/ml incubated for 48 hrs by M27-A3 based microdilution method relative to control; assay type: functional
Candida albicans [29] = assay: Induction of macrophage-mediated Candida albicans SC5314 phagocytosis assessed as change in chitin at 16 ug/ml incubated for 18 hrs in presence of mouse RAW264.7 macrophages by PI/Acridine orange double staining based confocal laser scanning microscopic analysis; assay type: functional; conditions: dose 16.0 µg/ml
Candida albicans [30] = assay: Induction of macrophage-mediated Candida albicans SC5314 phagocytosis assessed as change in hyphae properties at 16 ug/ml incubated for 18 hrs in presence of mouse RAW264.7 macrophages by PI/Acridine orange double staining based confocal laser scanning microscopic analysis; assay type: functional; conditions: dose 16.0 µg/ml
Candida albicans [31] = assay: In vivo antifungal activity against Candida albicans SC5314 infected in Galleria mellonella larvae assessed as survival of larvae by measuring health score index at 16 ug/ml administered 1 hr prior to infection measured within 5 days by Hematoxylin and eosin staining; assay type: functional, organism-based; conditions: dose 16.0 µg/ml, time 5.0 day

SMILES: O=C1CN=C(c2ccccc2Br)c2cc(F)ccc2N1CCCn1nnc(-c2ccccc2Cl)n1
- Activity [1]: Non-Toxic
- Activity (Candida albicans [2]): Active
- inhibition at 2 µg/mL (Candida albicans [3]): 100%
- inhibition at 4 µg/mL (Candida albicans [4]): 99.3%
- inhibition at 0.03125 µg/mL (Candida albicans [5]): 100%
- Activity (Candida albicans [6]): Active
- Activity (Candida albicans [7]): Active
- inhibition at 0.03125 µg/mL (Candida albicans [8]): 100%
- inhibition at 4 µg/mL (Candida albicans [9]): 99.3%
- Activity (Candida albicans [10]): 2.95%
- Activity (Candida albicans [11]): Active
- Activity (Candida albicans [12]): Active
- inhibition at 1 µg/mL (Candida albicans [13]): 99.2%
- Activity (Candida albicans [14]): Active
- inhibition at 8 µg/mL (Candida albicans [15]): 99.1%
- Activity (Candida albicans [16]): Active
- Activity (Candida albicans [17]): 24.4%
- Activity (Candida tropicalis): Dde
- inhibition at 0.5 µg/mL (Candida albicans [18]): 99.3%
- Activity (Candida albicans [19]): 3.7%
- inhibition at 1 µg/mL (Candida albicans [20]): 99.1%
- inhibition at 8 µg/mL (Candida albicans [21]): 99.1%
- inhibition at 0.0625 µg/mL (Candida albicans [22]): 99.2%
- inhibition at 16 µg/mL (Candida albicans [23]): 100%
- Activity (Candida albicans [24]): Active
- inhibition at 0.25 µg/mL (Candida albicans [25]): 100%
- Activity (Candida albicans [26]): Active
- Activity (Candida albicans [27]): Active
- inhibition at 0.125 µg/mL (Candida albicans [28]): 99.3%
- Activity (Candida albicans [29]): Active
- Activity (Candida albicans [30]): Active
- Activity (Candida albicans [31]): Active
